Laboratory results as given in patent publication US11564923B2, “Compounds and pharmaceutical compositions thereof for the treatment of inflammatory disorders” (Galapagos NV, priority 2017, dated 2023).

Assays:
Format in all cases: biochemical
[1] = molecular target: Recombinant human JAK3 catalytic domain (amino acids 781-1124) (Homo sapiens, UniProt P52333); experiment: JAK3 inhibition assay
Summary of the method: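 Radiometric kinase reaction run 45 min at 30° C., stopped with phosphoric acid; activity as vehicle cpm minus 10 μM staurosporine cpm.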

[2] = molecular target: T1, Recombinant human JAK2 (catalytic domain, amino acids 808-1132) (Homo sapiens, UniProt O60674); experiment: JAK2 inhibition assay; settings: read-out: JAK2 potency IC50; further: 0.7 µM ATP
T1 construct: catalytic domain, amino acids 808-1132
T1 sequence (O60674 808-1132): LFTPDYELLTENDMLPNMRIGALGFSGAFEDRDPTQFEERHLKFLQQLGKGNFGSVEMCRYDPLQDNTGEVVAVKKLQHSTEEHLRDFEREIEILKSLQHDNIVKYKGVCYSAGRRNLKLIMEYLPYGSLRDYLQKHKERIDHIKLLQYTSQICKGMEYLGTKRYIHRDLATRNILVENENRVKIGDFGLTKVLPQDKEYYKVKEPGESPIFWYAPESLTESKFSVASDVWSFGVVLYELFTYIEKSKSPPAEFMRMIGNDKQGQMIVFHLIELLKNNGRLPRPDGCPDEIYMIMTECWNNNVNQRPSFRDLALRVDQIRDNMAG

[3] = molecular target: T2, Recombinant human JAK1 (catalytic domain, amino acids 866-1154) (Homo sapiens, UniProt P23458); experiment: JAK1 inhibition assay; settings: read-out: JAK1 potency IC50
T2 construct: catalytic domain, amino acids 866-1154
T2 sequence (P23458 866-1154): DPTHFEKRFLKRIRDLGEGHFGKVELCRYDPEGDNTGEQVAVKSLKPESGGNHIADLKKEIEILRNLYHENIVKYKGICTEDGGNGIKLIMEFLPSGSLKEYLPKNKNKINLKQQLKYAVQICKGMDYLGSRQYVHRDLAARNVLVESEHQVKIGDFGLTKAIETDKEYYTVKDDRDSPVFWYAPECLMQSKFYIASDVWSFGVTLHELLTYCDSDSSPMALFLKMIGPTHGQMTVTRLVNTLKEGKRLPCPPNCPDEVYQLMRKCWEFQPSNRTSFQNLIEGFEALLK

[4] = molecular target: T3, Recombinant human TYK2 catalytic domain (amino acids 871-1187) (Homo sapiens, UniProt P29597); experiment: TYK2 ADPglo kinase assay; further: 12 µM ATP
T3 construct: catalytic domain (amino acids 871-1187)
T3 sequence (P29597 871-1187): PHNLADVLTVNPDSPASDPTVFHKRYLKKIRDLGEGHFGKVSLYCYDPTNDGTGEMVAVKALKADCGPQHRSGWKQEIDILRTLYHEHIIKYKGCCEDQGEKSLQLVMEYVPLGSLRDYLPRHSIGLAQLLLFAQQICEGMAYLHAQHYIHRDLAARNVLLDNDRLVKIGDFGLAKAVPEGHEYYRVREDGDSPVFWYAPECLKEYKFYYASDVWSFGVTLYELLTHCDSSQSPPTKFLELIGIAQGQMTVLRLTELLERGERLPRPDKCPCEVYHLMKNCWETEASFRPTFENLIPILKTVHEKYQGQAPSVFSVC
Protocol: After 120 min at room temperature, reactions were stopped and the remaining ATP is depleted by adding 5 μL/well of ADP Glo Reagent (Promega, catalog number V912B). After 40 min at room temperature, 10 μl Kinase Detection Reagent (Kinase Detection Substrate (Promega, catalog number V914B) dissolved in Kinase Detection Buffer (Promega, catalog number V913B)) is added to convert ADP to ATP and to measure this newly synthesized ATP in a luciferase/luciferin reaction. Readout is performed after 30 min incubation at room temperature using the Envision. Kinase activity is calculated by subtracting the relative light units (RLU) obtained in the presence of a positive control inhibitor (10 μM staurosporine) from the RLU obtained in the presence of vehicle. The ability of a test compound to inhibit this activity (or percentage inhibition) is determined as:
RLU test compound=RLU determined for sample with test compound present
RLU control=RLU determined for sample with positive control inhibitor
RLU vehicle=RLU determined in the presence of vehicle
Dose dilution series were prepared for the compounds enabling the testing of dose-response effects in the TYK2 assay and the calculation of the IC50 for the compound. Each compound is routinely tested at concentration of 20 μM followed by a 1/5 serial dilution, 10 points in a final concentration of 1% DMSO. […] The data are expressed as the average IC50 from the assays.

Chain of Recombinant human JAK3 catalytic domain (amino acids 781-1124) (P52333 781-1124): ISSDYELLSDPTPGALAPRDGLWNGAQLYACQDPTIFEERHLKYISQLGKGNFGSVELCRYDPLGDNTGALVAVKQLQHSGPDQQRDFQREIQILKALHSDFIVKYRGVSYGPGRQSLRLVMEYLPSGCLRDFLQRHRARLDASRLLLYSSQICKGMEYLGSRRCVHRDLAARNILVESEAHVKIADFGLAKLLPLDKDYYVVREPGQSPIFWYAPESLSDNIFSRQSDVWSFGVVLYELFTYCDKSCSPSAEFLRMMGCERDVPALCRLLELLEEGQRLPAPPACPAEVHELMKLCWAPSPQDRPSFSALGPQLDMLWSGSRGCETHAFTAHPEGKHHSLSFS

IC50 [1] [nM] | IC50 [2] [nM] | IC50 [3] [nM] | IC50 [4] [nM] | Compound
13 | 1.17 | 9.6 | 0.58 | Cn1cnc2c(Nc3ccc(S(C)(=O)=O)cn3)cc(NC(C3CC3)C(F)(F)F)nc21 (centres unmarked) [Compound 92, N5-(1-cyclopropyl-2,2,2-trifluoro-ethyl)-3-methyl-N7-(5-methylsulfonyl-2-pyridyl)imidazo[4,5-b]pyridine-5,7-diamine]
258 | 28.2 | 51.4 | – | Cc1cc(C#N)ncc1Nc1cc(Nc2ccc(C(=O)N(C)C)cn2)c2ncn(C)c2n1 [Compound 67, 6-[[5-[(6-cyano-4-methyl-3-pyridyl)amino]-3-methyl-imidazo[4,5-b]pyridin-7-yl]amino]-N,N-dimethyl-pyridine-3-carboxamide]
2760 | 175 | 113 | – | Cc1cc(C#N)ncc1Oc1cc(Nc2ccc(S(=O)(=O)C(F)F)cc2)c2ncn(C)c2n1 [Compound 68, 5-[7-[4-(difluoromethylsulfonyl)anilino]-3-methyl-imidazo[4,5-b]pyridin-5-yl]oxy-4-methyl-pyridine-2-carbonitrile]
189 | 1.42 | 5.3 | 0.11 | Cc1cc(C#N)ncc1N(c1cc(Nc2cc(N)ncn2)c2ncn(C)c2n1)C1CC1 [Compound 88, 5-[[7-[(6-aminopyrimidin-4-yl)amino]-3-methyl-imidazo[4,5-b]pyridin-5-yl]-cyclopropyl-amino]-4-methyl-pyridine-2-carbonitrile]
77.4 | 16.4 | 57.1 | – | CC(C)C(Nc1cc(Nc2cc(N)ncn2)c2ncn(C)c2n1)C(F)(F)F (centres unmarked) [Compound 93, N7-(6-aminopyrimidin-4-yl)-3-methyl-N5-[2-methyl-1-(trifluoromethyl)propyl)imidazo[4,5-b]pyridine-5,7-diamine]
1490 | 67.3 | 153 | – | Cc1cc(C(F)(F)F)ncc1Oc1cc(Nc2cc(N)ncn2)c2ncn(C)c2n1 [Compound 1, N-[3-Methyl-5-(4-methyl-6-trifluoromethyl-pyridin-3-yloxy)-3H-imidazo[4,5-b]pyridin-7-yl]-pyrimidine-4,6-diamine]
1310 | 70 | 61.3 | – | Cc1cc(C#N)ncc1Oc1cc(Nc2ccc(S(=O)(=O)C3CC3)cc2)c2ncn(C)c2n1 [Compound 69, 5-[7-(4-cyclopropylsulfonylanilino)-3-methyl-imidazo[4,5-b]pyridin-5-yl]oxy-4-methyl-pyridine-2-carbonitrile]
